PubChem BioAssay AID1963829 (Molecular Pharmacology Branch, DTP, NCI, 2024)

Test system: 935938-334-R-J1-PDC complex spheroid viability
Test: Anticancer human tumor 935938-334-R-J1-PDC patient-derived small intestine adenocarcinoma cell line growth inhibition [POLQ]
Settings: for IC50: curve of first compound; for viability, T/C: stronger effect = lower value
In short: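 Patient-derived tumour cells were co-cultured with HUVEC and mesenchymal stem cells as multicellular spheroids at 37 °C. They were treated with POLQ inhibitors (novobiocin, ART-558, RP6685) alone or combined with other agents. Top concentrations were at or near clinical Cmax (otherwise 10 microM; SN-38 at 1 microM), decreasing in half-log steps.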

[1] = second compound 0.0316 µM, first compound 0.0316 µM
[2] = second compound 0.0316 µM, first compound 0.1 µM
[3] = second compound 0.0316 µM, first compound 0.316 µM
[4] = second compound 0.0316 µM, first compound 1 µM
[5] = second compound 0.0316 µM, first compound 3.16 µM
[6] = second compound 0.0316 µM, first compound 10 µM
[7] = second compound 0.1 µM, first compound 0.0316 µM
[8] = second compound 0.1 µM, first compound 0.1 µM
[9] = second compound 0.1 µM, first compound 0.316 µM
[10] = second compound 0.1 µM, first compound 1 µM
[11] = second compound 0.1 µM, first compound 3.16 µM
[12] = second compound 0.1 µM, first compound 10 µM
[13] = second compound 0.316 µM, first compound 0.0316 µM
[14] = second compound 0.316 µM, first compound 0.1 µM
[15] = second compound 0.316 µM, first compound 0.316 µM
[16] = second compound 0.316 µM, first compound 1 µM
[17] = second compound 0.316 µM, first compound 3.16 µM
[18] = second compound 0.316 µM, first compound 10 µM
[19] = second compound 1 µM, first compound 0.0316 µM
[20] = second compound 1 µM, first compound 0.1 µM
[21] = second compound 1 µM, first compound 0.316 µM
[22] = second compound 1 µM, first compound 1 µM
[23] = second compound 1 µM, first compound 3.16 µM
[24] = second compound 1 µM, first compound 10 µM
[25] = second compound 3.16 µM, first compound 0.0316 µM
[26] = second compound 3.16 µM, first compound 0.1 µM
[27] = second compound 3.16 µM, first compound 0.316 µM
[28] = second compound 3.16 µM, first compound 1 µM
[29] = second compound 3.16 µM, first compound 3.16 µM
[30] = second compound 3.16 µM, first compound 10 µM
[31] = second compound 10 µM, first compound 0.0316 µM
[32] = second compound 10 µM, first compound 0.1 µM
[33] = second compound 10 µM, first compound 0.316 µM
[34] = second compound 10 µM, first compound 1 µM
[35] = second compound 10 µM, first compound 3.16 µM
[36] = second compound 10 µM, first compound 10 µM
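Further: spheroids exposed to drugs for seven days before viability read.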
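Wherever viability, T/C is given: 100% = DMSO vehicle control wells.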

## CC1COCCN1c1cc(C2(O)CC3CCC(C2)O3)c2cnn(-c3ccn[nH]3)c2n1 (stereo not given) + Cc1cccc(N(C)C(=O)C2C(O)CCN2c2nc(C)cc(C(F)(F)F)c2C#N)c1
Second compound 0.0316 µM
  IC50: 0.372 µM
Second compound 0.1 µM
  IC50: 0.262 µM
Second compound 0.316 µM
  IC50: 0.331 µM
Second compound 1 µM
  IC50: 0.215 µM
Second compound 3.16 µM
  IC50: 0.198 µM
Second compound 10 µM
  IC50: 0.155 µM
[1]
  viability, T/C: 84%
[2]
  viability, T/C: 76.2%
[3]
  viability, T/C: 52.9%
[4]
  viability, T/C: 29.1%
[5]
  viability, T/C: 18.7%
[6]
  viability, T/C: 13.8%
[7]
  viability, T/C: 101%
[8]
  viability, T/C: 90.3%
[9]
  viability, T/C: 40.1%
[10]
  viability, T/C: 25.8%
[11]
  viability, T/C: 17.7%
[12]
  viability, T/C: 9.91%
[13]
  viability, T/C: 66.2%
[14]
  viability, T/C: 92.2%
[15]
  viability, T/C: 51.3%
[16]
  viability, T/C: 24.8%
[17]
  viability, T/C: 18%
[18]
  viability, T/C: 13.3%
[19]
  viability, T/C: 77.7%
[20]
  viability, T/C: 74.5%
[21]
  viability, T/C: 37%
[22]
  viability, T/C: 25.3%
[23]
  viability, T/C: 18.9%
[24]
  viability, T/C: 12.5%
[25]
  viability, T/C: 90.6%
[26]
  viability, T/C: 64.5%
[27]
  viability, T/C: 40.2%
[28]
  viability, T/C: 23.9%
[29]
  viability, T/C: 20.6%
[30]
  viability, T/C: 12.3%
[31]
  viability, T/C: 70.3%
[32]
  viability, T/C: 56.8%
[33]
  viability, T/C: 39.6%
[34]
  viability, T/C: 23.2%
[35]
  viability, T/C: 17.2%
[36]
  viability, T/C: 9.31%

## COc1cc(C2c3cc4c(cc3C(OC3OC5COC(C)OC5C(O)C3O)C3COC(=O)C23)OCO4)cc(OC)c1O (stereo not given) + Nc1ccc(C#CCN(C(=O)Cc2ncc(C(F)(F)F)cc2C(F)(F)F)c2ccc(F)cc2)nn1
Second compound 0.0316 µM
  IC50: 0.832 µM
Second compound 0.1 µM
  IC50: 0.666 µM
Second compound 0.316 µM
  IC50: 0.762 µM
Second compound 1 µM
  IC50: 0.616 µM
Second compound 3.16 µM
  IC50: 0.597 µM
Second compound 10 µM
  IC50: 0.565 µM
[1]
  viability, T/C: 95.1%
[2]
  viability, T/C: 86.1%
[3]
  viability, T/C: 87.8%
[4]
  viability, T/C: 42.9%
[5]
  viability, T/C: 26.8%
[6]
  viability, T/C: 31.6%
[7]
  viability, T/C: 99.5%
[8]
  viability, T/C: 90.8%
[9]
  viability, T/C: 74.5%
[10]
  viability, T/C: 35.5%
[11]
  viability, T/C: 37.5%
[12]
  viability, T/C: 29.9%
[13]
  viability, T/C: 108%
[14]
  viability, T/C: 68.9%
[15]
  viability, T/C: 69.1%
[16]
  viability, T/C: 49.6%
[17]
  viability, T/C: 31.2%
[18]
  viability, T/C: 30.4%
[19]
  viability, T/C: 83.3%
[20]
  viability, T/C: 89.2%
[21]
  viability, T/C: 60.3%
[22]
  viability, T/C: 43.9%
[23]
  viability, T/C: 28%
[24]
  viability, T/C: 31.7%
[25]
  viability, T/C: 109%
[26]
  viability, T/C: 86.7%
[27]
  viability, T/C: 64.6%
[28]
  viability, T/C: 37.6%
[29]
  viability, T/C: 32.7%
[30]
  viability, T/C: 31.3%
[31]
  viability, T/C: 110%
[32]
  viability, T/C: 79.2%
[33]
  viability, T/C: 64.8%
[34]
  viability, T/C: 38.4%
[35]
  viability, T/C: 29%
[36]
  viability, T/C: 33.7%

## Nc1ccn(C2OC(CO)C(O)C2(F)F)c(=O)n1 (stereo not given) + Cc1cccc(N(C)C(=O)C2C(O)CCN2c2nc(C)cc(C(F)(F)F)c2C#N)c1
Second compound 0.0316 µM
  IC50: < 0.0316 µM
Second compound 0.1 µM
  IC50: < 0.0316 µM
Second compound 0.316 µM
  IC50: < 0.0316 µM
Second compound 1 µM
  IC50: < 0.0316 µM
Second compound 3.16 µM
  IC50: < 0.0316 µM
Second compound 10 µM
  IC50: < 0.0316 µM
[1]
  viability, T/C: 40.4%
[2]
  viability, T/C: 27.8%
[3]
  viability, T/C: 23.1%
[4]
  viability, T/C: 21%
[5]
  viability, T/C: 18.2%
[6]
  viability, T/C: 16.3%
[7]
  viability, T/C: 32.9%
[8]
  viability, T/C: 29.7%
[9]
  viability, T/C: 21.4%
[10]
  viability, T/C: 21.1%
[11]
  viability, T/C: 20.2%
[12]
  viability, T/C: 21.2%
[13]
  viability, T/C: 40.2%
[14]
  viability, T/C: 30.9%
[15]
  viability, T/C: 23.2%
[16]
  viability, T/C: 23.4%
[17]
  viability, T/C: 18.8%
[18]
  viability, T/C: 18.1%
[19]
  viability, T/C: 37.4%
[20]
  viability, T/C: 27.7%
[21]
  viability, T/C: 26.6%
[22]
  viability, T/C: 23.2%
[23]
  viability, T/C: 22.8%
[24]
  viability, T/C: 19.9%
[25]
  viability, T/C: 37.3%
[26]
  viability, T/C: 33.8%
[27]
  viability, T/C: 24.8%
[28]
  viability, T/C: 19.2%
[29]
  viability, T/C: 23.2%
[30]
  viability, T/C: 20.3%
[31]
  viability, T/C: 39.2%
[32]
  viability, T/C: 35.4%
[33]
  viability, T/C: 29.2%
[34]
  viability, T/C: 23.3%
[35]
  viability, T/C: 26.2%
[36]
  viability, T/C: 19.2%

## CNCc1ccc(-c2[nH]c3cc(F)cc4c3c2CCNC4=O)cc1 + Nc1ccc(C#CCN(C(=O)Cc2ncc(C(F)(F)F)cc2C(F)(F)F)c2ccc(F)cc2)nn1
Second compound 0.0316 µM
  IC50: > 10 µM
Second compound 0.1 µM
  IC50: > 10 µM
Second compound 0.316 µM
  IC50: > 10 µM
Second compound 1 µM
  IC50: > 10 µM
Second compound 3.16 µM
  IC50: > 10 µM
Second compound 10 µM
  IC50: > 10 µM
[1]
  viability, T/C: 96.6%
[2]
  viability, T/C: 104%
[3]
  viability, T/C: 105%
[4]
  viability, T/C: 77.2%
[5]
  viability, T/C: 80%
[6]
  viability, T/C: 96.1%
[7]
  viability, T/C: 85.8%
[8]
  viability, T/C: 80.5%
[9]
  viability, T/C: 112%
[10]
  viability, T/C: 91.8%
[11]
  viability, T/C: 100%
[12]
  viability, T/C: 96.5%
[13]
  viability, T/C: 126%
[14]
  viability, T/C: 102%
[15]
  viability, T/C: 110%
[16]
  viability, T/C: 95.7%
[17]
  viability, T/C: 107%
[18]
  viability, T/C: 89.2%
[19]
  viability, T/C: 77.2%
[20]
  viability, T/C: 78.2%
[21]
  viability, T/C: 121%
[22]
  viability, T/C: 86.7%
[23]
  viability, T/C: 111%
[24]
  viability, T/C: 127%
[25]
  viability, T/C: 109%
[26]
  viability, T/C: 79%
[27]
  viability, T/C: 110%
[28]
  viability, T/C: 106%
[29]
  viability, T/C: 75%
[30]
  viability, T/C: 104%
[31]
  viability, T/C: 111%
[32]
  viability, T/C: 99.5%
[33]
  viability, T/C: 107%
[34]
  viability, T/C: 116%
[35]
  viability, T/C: 106%
[36]
  viability, T/C: 130%

## COc1cc2cc(C(=O)CCC(=O)O)sc2cc1OC + Cc1cccc(N(C)C(=O)C2C(O)CCN2c2nc(C)cc(C(F)(F)F)c2C#N)c1
Second compound 0.0316 µM
  IC50: > 10 µM
Second compound 0.1 µM
  IC50: > 10 µM
Second compound 0.316 µM
  IC50: > 10 µM
Second compound 1 µM
  IC50: > 10 µM
Second compound 3.16 µM
  IC50: > 10 µM
Second compound 10 µM
  IC50: > 10 µM
[1]
  viability, T/C: 116%
[2]
  viability, T/C: 84.3%
[3]
  viability, T/C: 88.5%
[4]
  viability, T/C: 83.9%
[5]
  viability, T/C: 85.1%
[6]
  viability, T/C: 80.8%
[7]
  viability, T/C: 100%
[8]
  viability, T/C: 85.6%
[9]
  viability, T/C: 92.4%
[10]
  viability, T/C: 95.7%
[11]
  viability, T/C: 62.9%
[12]
  viability, T/C: 81.9%
[13]
  viability, T/C: 79.7%
[14]
  viability, T/C: 82.5%
[15]
  viability, T/C: 68.3%
[16]
  viability, T/C: 88.9%
[17]
  viability, T/C: 84.8%
[18]
  viability, T/C: 93.8%
[19]
  viability, T/C: 91.7%
[20]
  viability, T/C: 96.5%
[21]
  viability, T/C: 103%
[22]
  viability, T/C: 81.1%
[23]
  viability, T/C: 74%
[24]
  viability, T/C: 83.4%
[25]
  viability, T/C: 82.1%
[26]
  viability, T/C: 95.6%
[27]
  viability, T/C: 98.5%
[28]
  viability, T/C: 95.9%
[29]
  viability, T/C: 98.2%
[30]
  viability, T/C: 95.1%
[31]
  viability, T/C: 135%
[32]
  viability, T/C: 75.6%
[33]
  viability, T/C: 96.2%
[34]
  viability, T/C: 112%
[35]
  viability, T/C: 114%
[36]
  viability, T/C: 105%
